These results are taken from patent US20100184684A1, “ANTIBACTERIAL AND ANTIFUNGAL PEPTIDES” (C3 JIAN, INC., priority 2009, published 2010).

One experiment has as its system A. niger. The experiment is classed as cell-based, Aspergillus niger. The method, then:
(§1) In certain embodiments the MIC assays are performed as described herein in the Examples. For each organism, the media and growth conditions utilized is detailed in Table 8.
(§2) In certain embodiments the MIC assays are performed as follows: For each organism, the media and growth conditions utilized is detailed in Table 8.

Another experiment deals with B. subtilis. It is filed as cell-based, Bacillus subtilis. On the procedure:
as §1, §2

For a further experiment, the system named is MRSA. It is filed as cell-based, Staphylococcus aureus. On the procedure:
as §1, §2

The subject of the next experiment is T. rubrum. It is filed as cell-based, Trichophyton rubrum. On the procedure: as §1, §2
The next experiment deals with S. pneumoniae. The experiment is classed as cell-based, Streptococcus pneumoniae. On the procedure: as §1, §2
Another experiment deals with S. epidermidis. The experiment is classed as cell-based. The method, then:
as §1, §2

Setting [1] is: S. pneumoniae, TSB supplemented with 5% yeast extract, 37° C., 10% CO2, 10^6 CFU/ml.

Molecules are shown by their SMILES. Converted amounts (≈) assume the structure as drawn. Read-outs that look alike come from different tables or passages of the source. Peptide text beside a SMILES is read from it.

One may read the MIC as the lowest concentration that inhibits growth of the organism. Consider `CSCC[C@H](NC(=O)[C@H](CCCNC(=N)N)NC(=O)[C@H](CCCNC(=N)N)NC(=O)[C@H](CC(C)C)NC(=O)[C@H](CCCNC(=N)N)NC(=O)[C@H](CCC(=O)O)NC(=O)[C@@H](NC(=O)[C@H](CS)NC(=O)CNC(=O)[C@H](CCCNC(=N)N)NC(=O)[C@@H](N)CCCNC(=N)N)[C@@H](C)O)C(=O)N[C@@H](C)C(=O)N[C@@H](CCCNC(=N)N)C(=O)N[C@@H](CCCNC(=N)N)C(=O)N[C@@H](CC(N)=O)C(=O)N[C@@H](C)C(=O)N[C@@H](Cc1c[nH]c2ccccc12)C(=O)N[C@@H](CC(=O)O)C(=O)N[C@@H](CC(C)C)C(=O)N[C@@H](Cc1ccc(O)cc1)C(=O)N[C@@H](C)C(=O)N[C@@H](CCC(=O)O)C(=O)N[C@@H](Cc1c[nH]cn1)C(=O)N[C@@H](Cc1ccccc1)C(=O)N[C@@H](Cc1ccc(O)cc1)C(=O)O` [PF-148] (H-RRGCTERLRRMARRNAWDLYAEHFY-OH; N-terminus and C-terminus assumed), for which the MIC with A. niger and in the experiment on B. subtilis was 50 µM (≈ 161 µg/mL) throughout.
For `CC[C@H](C)[C@H](NC(=O)[C@H](C)NC(=O)[C@@H]1CCCN1C(=O)[C@H](Cc1ccccc1)NC(=O)[C@@H]1CCCN1C(=O)[C@H](CC(C)C)NC(=O)[C@@H](N)C(C)C)C(=O)N1CCC[C@H]1C(=O)N[C@@H](CC(C)C)C(=O)N[C@@H](CO)C(=O)N[C@@H](CCCNC(=N)N)C(=O)N[C@@H](CCCNC(=N)N)C(=O)N[C@@H](CCCNC(=N)N)C(=O)N[C@@H](C)C(=O)N[C@@H](CS)C(=O)N[C@H](C(=O)N[C@@H](C)C(=O)N[C@@H](C)C(=O)N1CCC[C@H]1C(=O)N[C@@H](CCCNC(=N)N)C(=O)N1CCC[C@H]1C(=O)N[C@@H](CCCNC(=N)N)C(=O)N[C@@H](CO)C(=O)N[C@@H](CCCNC(=N)N)C(=O)N[C@@H](CCC(N)=O)C(=O)N[C@@H](CCCNC(=N)N)C(=O)N[C@@H](C)C(=O)N[C@@H](CO)C(=O)O)C(C)C` [PF-168] (H-VLPFPAIPLSRRRACVAAPRPRSRQRAS-OH; N-terminus and C-terminus assumed), the minimal inhibitory concentration (MIC) against MRSA, in the experiment on A. niger and against T. rubrum was 50 µM (≈ 156 µg/mL) throughout.
Regarding `CC(C)[C@H](NC(=O)[C@H](C)NC(=O)[C@H](Cc1ccc(O)cc1)NC(=O)[C@@H](N)CC(N)=O)C(=O)N[C@H](C(=O)N[C@@H](CO)C(=O)N[C@@H](Cc1c[nH]cn1)C(=O)N[C@H](C(=O)O)[C@@H](C)O)C(C)C` [PF-209] (H-NYAVVSHT-OH; N-terminus and C-terminus assumed), the MIC against MRSA is 50 µM (≈ 44.5 µg/mL).
Regarding `CC(C)C[C@H](NC(=O)[C@H](CCC(N)=O)NC(=O)[C@H](CO)NC(=O)[C@H](CCC(N)=O)NC(=O)[C@H](CC(C)C)NC(=O)[C@@H](N)CO)C(=O)NCC(=O)N1CCC[C@H]1C(=O)N[C@@H](CS)C(=O)N[C@@H](CC(C)C)C(=O)N[C@@H](Cc1c[nH]cn1)C(=O)N[C@@H](CC(=O)O)C(=O)N[C@@H](CCC(N)=O)C(=O)N[C@@H](CCCNC(=N)N)C(=O)N[C@@H](Cc1c[nH]cn1)C(=O)O` [PF-448] (H-SLQSQLGPCLHDQRH-OH; N-terminus and C-terminus assumed), the minimum inhibitory concentration (MIC) in the experiment with A. niger came out at 25 µM (≈ 43 µg/mL); against S. pneumoniae, 50 µM (≈ 85.9 µg/mL).
In the experiment on B. subtilis, `CC[C@H](C)[C@H](NC(=O)[C@H](Cc1ccccc1)NC(=O)[C@@H](NC(=O)[C@H](Cc1ccccc1)NC(=O)[C@H](CC(C)C)NC(=O)[C@H](CC(=O)O)NC(=O)[C@@H](NC(=O)[C@H](CS)NC(=O)[C@@H](NC(=O)[C@H](CCCNC(=N)N)NC(=O)[C@H](CC(C)C)NC(=O)[C@@H](NC(=O)[C@@H](N)CC(C)C)C(C)C)[C@@H](C)CC)[C@@H](C)O)[C@@H](C)O)C(=O)N[C@@H](CCCCN)C(=O)N[C@@H](Cc1c[nH]c2ccccc12)C(=O)N[C@H](C(=O)N[C@H](C(=O)N[C@@H](CCCCN)C(=O)N[C@@H](CCC(N)=O)C(=O)N[C@@H](CCCNC(=N)N)C(=O)N[C@@H](CCCCN)C(=O)N[C@@H](CO)C(=O)O)[C@@H](C)CC)[C@@H](C)O` [PF-497] (H-LVLRICTDLFTFIKWTIKQRKS-OH; N-terminus and C-terminus assumed) returned an MIC of 50 µM (≈ 136 µg/mL).
Take `CC[C@H](C)[C@H](NC(=O)[C@H](CC(C)C)NC(=O)[C@@H]1CCCN1C(=O)[C@@H]1CCCN1C(=O)[C@H](CCCCN)NC(=O)[C@@H](NC(=O)[C@H](Cc1ccc(O)cc1)NC(=O)[C@H](CC(C)C)NC(=O)[C@H](CO)NC(=O)[C@H](CCC(N)=O)NC(=O)[C@H](CCSC)NC(=O)[C@@H](N)C(C)C)C(C)C)C(=O)N[C@@H](CC(C)C)C(=O)N[C@H](C(=O)N[C@H](C(=O)N[C@@H](CCCCN)C(=O)N[C@@H](CC(C)C)C(=O)N[C@@H](C)C(=O)N[C@@H](CCC(N)=O)C(=O)N[C@@H](CCC(N)=O)C(=O)N[C@@H](CC(N)=O)C(=O)O)[C@@H](C)O)C(C)C` [PF-511] (H-VMQSLYVKPPLILVTKLAQQN-OH; N-terminus and C-terminus assumed): in the experiment with S. pneumoniae (setting [1]), the MIC is 50 µM (≈ 119 µg/mL).
`CC[C@H](C)[C@H](NC(=O)[C@H](CCC(=O)O)NC(=O)[C@@H]1CCCN1C(=O)[C@H](CCSC)NC(=O)[C@H](Cc1ccccc1)NC(=O)[C@@H](N)CO)C(=O)N[C@@H](CCC(N)=O)C(=O)N[C@@H](CCCCN)C(=O)N[C@@H](CC(N)=O)C(=O)N[C@H](C(=O)N[C@H](C(=O)N1CCC[C@H]1C(=O)N[C@H](C(=O)N[C@@H](CCC(N)=O)C(=O)N[C@@H](CCSC)C(=O)N[C@@H](CCCCN)C(=O)O)[C@@H](C)O)[C@@H](C)CC)[C@@H](C)O` [PF-512] (H-SFMPEIQKNTIPTQMK-OH; N-terminus and C-terminus assumed) yielded a minimum inhibitory concentration (MIC) against S. pneumoniae (setting [1]) of 50 µM (≈ 94.7 µg/mL).
`CC(C)C[C@H](NC(=O)CNC(=O)[C@@H](N)CC(C)C)C(=O)N[C@H](C(=O)N[C@@H](C)C(=O)NCC(=O)N[C@H](C(=O)N[C@@H](C)C(=O)N[C@@H](Cc1ccc(O)cc1)C(=O)N[C@@H](C)C(=O)N[C@@H](C)C(=O)N[C@@H](CCC(N)=O)C(=O)N1CCC[C@H]1C(=O)N[C@H](C(=O)N[C@@H](CC(N)=O)C(=O)N[C@@H](CCC(N)=O)C(=O)N1CCC[C@H]1C(=O)N[C@H](C(=O)N[C@@H](CC(N)=O)C(=O)N[C@@H](CCC(N)=O)C(=O)N1CCC[C@H]1C(=O)N[C@H](C(=O)N[C@@H](CC(N)=O)C(=O)N[C@@H](CCC(N)=O)C(=O)N1CCC[C@H]1C(=O)N[C@H](C(=O)N[C@@H](CC(N)=O)C(=O)N[C@@H](CCC(N)=O)C(=O)N1CCC[C@H]1C(=O)N[C@H](C(=O)N[C@@H](CC(N)=O)C(=O)N[C@@H](CCC(N)=O)C(=O)N1CCC[C@H]1C(=O)N[C@H](C(=O)N[C@@H](CC(N)=O)C(=O)N[C@@H](CCC(N)=O)C(=O)N1CCC[C@H]1C(=O)N[C@@H](CCCNC(=N)N)C(=O)N[C@@H](Cc1c[nH]c2ccccc12)C(=O)O)[C@@H](C)O)[C@@H](C)O)[C@@H](C)O)[C@@H](C)O)[C@@H](C)O)[C@@H](C)O)C(C)C)[C@@H](C)O` [PF-520] (H-LGLTAGVAYAAQPTNQPTNQPTNQPTNQPTNQPTNQPRW-OH; N-terminus and C-terminus assumed) came in with an MIC with S. pneumoniae (setting [1]) of 50 µM (≈ 211 µg/mL).
In the case of `CC(C)C[C@H](NC(=O)[C@H](CC(C)C)NC(=O)[C@H](Cc1c[nH]cn1)NC(=O)[C@H](CC(N)=O)NC(=O)[C@H](CCCCN)NC(=O)[C@H](CC(C)C)NC(=O)[C@H](CO)NC(=O)[C@H](CCCNC(=N)N)NC(=O)[C@H](CO)NC(=O)[C@H](C)NC(=O)[C@H](CCC(N)=O)NC(=O)[C@H](CCCCN)NC(=O)[C@H](CO)NC(=O)[C@H](C)NC(=O)[C@H](CCC(N)=O)NC(=O)[C@H](CCCCN)NC(=O)[C@H](CO)NC(=O)[C@H](C)NC(=O)[C@H](CCC(N)=O)NC(=O)[C@H](CCCCN)NC(=O)[C@H](CO)NC(=O)[C@H](C)NC(=O)[C@H](CCC(N)=O)NC(=O)[C@H](CCCCN)NC(=O)[C@H](CO)NC(=O)[C@H](C)NC(=O)[C@H](CCC(N)=O)NC(=O)[C@H](CCCCN)NC(=O)[C@H](CO)NC(=O)[C@H](C)N)C(=O)O` [PF-523] (H-ASKQASKQASKQASKQASKQASRSLKNHLL-OH; N-terminus and C-terminus assumed), the minimal inhibitory concentration (MIC) with S. pneumoniae was 50 µM (≈ 161 µg/mL).
As to `CSCC[C@H](NC(=O)[C@H](CCC(=O)O)NC(=O)[C@H](CO)NC(=O)[C@@H](N)CC(C)C)C(=O)N[C@@H](CCC(=O)O)C(=O)N[C@@H](CCCNC(=N)N)C(=O)N[C@@H](CCCNC(=N)N)C(=O)N[C@@H](CCCNC(=N)N)C(=O)N[C@@H](CC(C)C)C(=O)N[C@@H](CCCNC(=N)N)C(=O)N[C@@H](CCCCN)C(=O)N[C@@H](CCCNC(=N)N)C(=O)N[C@@H](C)C(=O)O` [PF-529] (H-LSEMERRRLRKRA-OH; N-terminus and C-terminus assumed), the MIC against A. niger and against S. pneumoniae was 50 µM (≈ 85.1 µg/mL) throughout.
Consider `CC[C@H](C)[C@H](NC(=O)[C@H](CC(N)=O)NC(=O)[C@@H](NC(=O)[C@H](Cc1ccccc1)NC(=O)[C@H](CCC(=O)O)NC(=O)CNC(=O)[C@H](CCC(N)=O)NC(=O)[C@H](Cc1ccccc1)NC(=O)[C@@H](N)CCCCN)[C@@H](C)O)C(=O)NCC(=O)N[C@@H](CCC(N)=O)C(=O)N[C@@H](CO)C(=O)N[C@@H](Cc1ccc(O)cc1)C(=O)N[C@H](C(=O)N[C@H](C(=O)N[C@@H](CO)C(=O)N[C@@H](C)C(=O)N[C@@H](CO)C(=O)N[C@@H](Cc1c[nH]cn1)C(=O)N[C@@H](CCSC)C(=O)N[C@@H](CO)C(=O)N[C@H](C(=O)N[C@@H](CO)C(=O)N[C@@H](CC(C)C)C(=O)N[C@@H](CC(N)=O)C(=O)N[C@H](C(=O)NCC(=O)N[C@@H](CCCCN)C(=O)O)[C@@H](C)O)[C@@H](C)O)C(C)C)[C@@H](C)CC` [PF-583] (H-KFQGEFTNIGQSYIVSASHMSTSLNTGK-OH; N-terminus and C-terminus assumed), for which the MIC with MRSA and with S. epidermidis was 50 µM (≈ 152 µg/mL) in each case.
